Test results: US8785619B1, “Nucleosides and oligonucleotides for studies on reversal of cytotoxic and mutagenic damage of DNA potential diagnostics tools” (ChemGenes Corporation, priority 2003, dated 2014)

Key:
[1] = Kinetic studies of N6 protecting group deprotection in ammonia: migration of methyl group from N1 to N6 (Dimroth rearrangement), by TLC and HPLC; type: physicochemical
From the text: Prior to utilize the N-6 chloroacetyl protected N-1 methyl-2′-deoxyadenosine 3′-cyanoethyl phosphoramidite, we carried out a number of kinetic studies for the deprotection of chloroacetyl group and determination of presence of any N-6 methyl
Our subsequent studies to develop a ideal group which would be cleanly removed under aq ammonia deprotection condition and would have negligible amount of Dimroth rearrangement product as bye product.
FIG. 7. 5′-DMT-N^1-Methyl-N^6-FMOC-2′-deoxyadenosine-Kinetic Test for FMOC. Deprotection (20% methanolic ammonia at 37 C. Note: The N-6 methyl migration product is seen 2.27% after complete deprotection.
(required to knock off Phenoxy acetyl from N^6 position). To minimize this migration, we introduced N-FMOC group in place of N-PAC which reduced 20% methanolic ammonia hydrolysis time to only 4 hours at 37° C. but even in 4 hours, approx. 2.5% migration took place. This migration of methyl group from N-^1 to N^6 position was confirmed by TLC & HPLC.

[2] = cited from earlier work
[3] = 2M methanolic ammonia at room temperature

## COc1ccc(C(OCC2OC(n3cnc4c(=NC(=O)OCC5c6ccccc6-c6ccccc65)n(C)cnc43)CC2OP(OCCC#N)N(C(C)C)C(C)C)(c2ccccc2)c2ccc(OC)cc2)cc1 (stereo not drawn) [5′-DMT-N^1-Methyl-N^6-FMOC-2′-deoxyadenosine-3′-cyanoethyl, n,n-diisopropyl phosphoramidite]
[1]; aq ammonia deprotection
  presence of N-6 methyl-2′-deoxy adenosine: less than 1%

## N-6 chloroacetyl protected N-1 methyl-2′-deoxyadenosine 3′-cyanoethyl phosphoramidite
[1]; deprotection of chloroacetyl group
  N-6 methyl-2′-deoxy adenosine formation (Dimroth rearrangement product): 8-10%

## Cn1cnc2c(ncn2[C@@H]2O[C@H](CO)[C@@H](O)[C@H]2O)c1=N [N^1-methyl adenosine]
[2]; [3]
  time stable: 3 days
  time to total conversion into N6-methyl adenosine: 6 days

## COc1ccc(C(OC[C@H]2O[C@@H](n3cnc4c(=NC(=O)OCC5c6ccccc6-c6ccccc65)n(C)cnc43)C[C@@H]2O)(c2ccccc2)c2ccc(OC)cc2)cc1 [5′-DMT-N^1-Methyl-N^6-FMOC-2′-deoxyadenosine]
[1]; FMOC deprotection, 20% methanolic ammonia at 37 C (FIG. 7)
  N-6 methyl migration product after complete deprotection: 2.27%

## Cn1cnc2c(ncn2[C@H]2C[C@H](O)[C@@H](CO)O2)c1=N [N^1-methyl-2′-deoxyadenosine]
[2]; 25% aq. ammonia
  half life of conversion into N6-methyl-2′-deoxyadenosine: 36 h
